# Measurements taken from patent US7776913B2, “Carnitines for treating or preventing disorders caused by andropause” (Sigma-Tau Industrie Farmaceutiche Riunite S.p.A., priority 2002, dated 2010).
# Tests used:
# [1] = test system: Patients aged over 60 years with lowered blood concentrations of free and total testosterone; assay: Penile dynamic colour Doppler ultrasonography (PSV, EDV, RI of cavernous arteries); format: in vivo, human; conditions: mean ± SD
# Source text: (§1) Reported here below is a clinical trial conducted in order to evaluate the activity of the combination according to the association in the treatment of the symptoms of male ageing.
# (§2) Patients aged over 60 years with lowered blood concentrations of free and total testosterone (The Aging Male 4: 151-162, 2001) and complaining of symptoms figuring in the working definition of andropause proposed by the International Society for the Study of the Aging Male (I.S.S.A.M.) (The Aging Male 4: 151-162, 2001): reduced libido or sex drive and erectile function, depressed mood, difficulty concentrating, irritability and fatigue.
# (§3) The above-mentioned compounds were presented to the patients in anonymous containers and administered for 6 months.
# (§4) Medical history-taking and physical examinations were done for all patients. The following data were also collected prior to the start of treatment, after 1, 3 and 6 months of treatment: • 1. Total blood prostate-specific antigen (PSA) (ng/ml) as measured with the automatic test and monoclonal antibodies [Rigatti P., Scattoni V.: PSA: Antigene prostatico specifico. Edizioni Medico Scientifiche (EDIMES) Pavia, 1997]. • 2. Prostate volume (cm^3) as measured by suprapubic ultrasonography and calculated by means of the three diameters rule [Rigatti P. Scattoni V.: PSA: Antigene prostatico specifico. Edizioni Medico Scientifiche (EDIMES) Pavia, 1997]. • 3. Peak systolic volume (PSV) (cm/sec), end-diastolic velocity (EDV) (cm/sec), and Resistance Index (RI) (%) of the penile arteries (right and left cavernous e dorsal) as measured by means of penile basal and dynamic colour Doppler ultrasonography. RI was calculated as follows: (PSV-EDV/EDV)×100 (Urology 1997: 49: 822-830). • 4. Duration of full erections (in minutes) in the course of a recording period of three nights performed with Rigiscan. […] Free and total blood testosterone, LH and prolactin levels (The Aging Male 4: 151-162, 2001). • 6. Sexual function was checked by means of semistructured interviews and administration of the International Index of Erectile Function (IIEF-15) (Urology 1997: 49: 822-830). A score was calculated for each patient. • 7. Depression was quantified by means of the Hamilton Depression Scale questionnaire (DMS III) (Cancer 94: 2481-2489, 2002). A score was calculated for each patient. • 8. The subjective sensation of fatigue was calculated using the fatigue scale (Lison L.: Statistica applicata alla biologia sperimentale. Milano: Casa Editrice Ambrosiana, 1972). A score was calculated for each patient. • 9. Side effects.
# (§5) Blood concentrations of PSA, free and total testosterone, prolactin LH, prostate volume, PSV, EDV, RI, full erection duration, IIEF-15, DMS III, and fatigue scale scores were compared between and within groups by means of factorial analysis of variance for randomised blocks (1 patient=1 block). Comparison of the mean values was done on the raw data with the exclusion of RI which used data subjected to angular transformation (sin^−1 √P/100) for the comparisons. Side effects were compared using the chi-square etst (Lison L.: Statistica applicata alla biologia sperimentale. Milano: Casa Editrice Ambrosiana, 1972).
# [2] = test system: Patients aged over 60 years with lowered blood concentrations of free and total testosterone; assay: Clinical trial overall: andropause symptoms and pathological changes of the cervico-urethral district; format: in vivo, human; conditions: unlike placebo
# Source text: as §1
# as §2, with “fatigue. […]” for “fatigue.”
# Medical history-taking and physical examinations were done for all patients. […] Total blood prostate-specific antigen (PSA) (ng/ml) as measured with the automatic test and monoclonal antibodies [Rigatti P., Scattoni V.: PSA: Antigene prostatico specifico. […] Prostate volume (cm^3) as measured by suprapubic ultrasonography and calculated by means of the three diameters rule [Rigatti P. Scattoni V.: PSA: Antigene prostatico specifico. […] Peak systolic volume (PSV) (cm/sec), end-diastolic velocity (EDV) (cm/sec), and Resistance Index (RI) (%) of the penile arteries (right and left cavernous e dorsal) as measured by means of penile basal and dynamic colour Doppler ultrasonography. RI was calculated as follows: (PSV-EDV/EDV)×100 (Urology 1997: 49: 822-830). • 4. […]
# [3] = test system: Patients aged over 60 years with lowered blood concentrations of free and total testosterone; assay: Hamilton Depression Scale questionnaire (DMS III); format: in vivo, human; conditions: for Hamilton Depression Scale questionnaire (DMS III) score: mean ± SD
# Source text: as §1, §2, §3, §4, §5
# [4] = test system: Patients aged over 60 years with lowered blood concentrations of free and total testosterone; assay: Blood levels of total testosterone; format: in vivo, human; conditions: for Total testosterone: blood, mean ± SD
# Source text: as §1, §2, §3
# as §4, with “effects. […]” for “effects.”
# [5] = test system: Patients aged over 60 years with lowered blood concentrations of free and total testosterone; assay: Blood levels of free testosterone; format: in vivo, human; conditions: mean ± SD
# Source text: as §1, §2, §3
# (§6) Medical history-taking and physical examinations were done for all patients. The following data were also collected prior to the start of treatment, after 1, 3 and 6 months of treatment: • 1. Total blood prostate-specific antigen (PSA) (ng/ml) as measured with the automatic test and monoclonal antibodies [Rigatti P., Scattoni V.: PSA: Antigene prostatico specifico. Edizioni Medico Scientifiche (EDIMES) Pavia, 1997]. • 2. Prostate volume (cm^3) as measured by suprapubic ultrasonography and calculated by means of the three diameters rule [Rigatti P. Scattoni V.: PSA: Antigene prostatico specifico. […] Peak systolic volume (PSV) (cm/sec), end-diastolic velocity (EDV) (cm/sec), and Resistance Index (RI) (%) of the penile arteries (right and left cavernous e dorsal) as measured by means of penile basal and dynamic colour Doppler ultrasonography. RI was calculated as follows: (PSV-EDV/EDV)×100 (Urology 1997: 49: 822-830). • 4. […] A score was calculated for each patient. • 7. Depression was quantified by means of the Hamilton Depression Scale questionnaire (DMS III) (Cancer 94: 2481-2489, 2002). A score was calculated for each patient. • 8. The subjective sensation of fatigue was calculated using the fatigue scale (Lison L.: Statistica applicata alla biologia sperimentale. Milano: Casa Editrice Ambrosiana, 1972). A score was calculated for each patient. • 9. […]
# [6] = test system: Patients aged over 60 years with lowered blood concentrations of free and total testosterone; assay: Blood prolactin levels; format: in vivo, human; set-up: unit not given here; conditions: mean ± SD
# Source text: as §1, §2, §3, §6
# [7] = test system: patients in the andropause; conditions: 40×2 mg/day; cited from earlier work
# [8] = test system: Patients aged over 60 years with lowered blood concentrations of free and total testosterone; assay: International Index of Erectile Function questionnaire (IIEF-15); format: in vivo, human; conditions: for IIEF-15 Erectile Function section score / IIEF-15 General Satisfaction section score (Table 18 title) / IIEF-15 Intercourse Satisfaction section score / IIEF-15 Orgasmic Function section score (Table 17 title) / IIEF-15 Sexual Desire section score: mean ± SD
# Source text: as §1, §2, §3, §4, §5
# [9] = test system: Patients aged over 60 years with lowered blood concentrations of free and total testosterone; assay: Duration of full nocturnal erections, three nights by Rigiscan; format: in vivo, human; conditions: for Duration of full erections: three nights by Rigiscan, mean ± SD
# Source text: as §1, §2, §3
# as §4, with “effects. […]” for “effects.”
# [10] = test system: Patients aged over 60 years with lowered blood concentrations of free and total testosterone; assay: Prostate volume by suprapubic ultrasonography (three diameters rule); conditions: mean ± SD
# Source text: as §1, §2, §3, §6
# [11] = test system: Patients aged over 60 years with lowered blood concentrations of free and total testosterone; assay: Fatigue scale; format: in vivo, human; conditions: for Fatigue scale score: mean ± SD
# Source text: as §1, §2, §3, §4, §5
# [12] = test system: Patients aged over 60 years with lowered blood concentrations of free and total testosterone; assay: Blood levels of LH; format: in vivo, human; conditions: for LH: blood, mean ± SD
# Source text: as §1, §2, §3, §4, §5
# [13] = test system: Patients aged over 60 years with lowered blood concentrations of free and total testosterone; assay: Total blood prostate-specific antigen (PSA) in the clinical trial; conditions: for PSA: mean ± SD, 15 patients
# Source text: as §1, §2, §3
# as §4, with “effects. […]” for “effects.”
substance,measurement,setting,value
testosterone undecaonate,Left cavernous PSV,[1]; 3 months of therapy,32.6 ± 4.2 cm/sec
same,Left cavernous artery EDV,[1]; 3 months of therapy,7.5 ± 3.3 cm/s
same,Right cavernous artery EDV,[1]; 3 months of therapy,7.9 ± 3.6 cm/s
same,Right cavernous artery PSV,[1]; 3 months of therapy,32.8 ± 4.2 cm/sec
same,Left cavernous PSV,[1]; 6 months of therapy,33.5 ± 3.5 cm/sec
same,Left cavernous artery EDV,[1]; 6 months of therapy,7.4 ± 3.3 cm/s
same,Right cavernous artery EDV,[1]; 6 months of therapy,7.9 ± 3.6 cm/s
same,Right cavernous artery PSV,[1]; 6 months of therapy,33.7 ± 3.7 cm/sec
same,Left cavernous PSV,[1]; before therapy,33.6 ± 3.7 cm/sec
same,Left cavernous artery EDV,[1]; before therapy,7.7 ± 3.5 cm/s
same,Right cavernous artery EDV,[1]; before therapy,7.8 ± 3.6 cm/s
same,Right cavernous artery PSV,[1]; before therapy,33.2 ± 3.9 cm/sec
same,Effect on the symptoms of andropause,[2],capable of attenuating
same,Hamilton Depression Scale questionnaire (DMS III) score,[3]; 3 months of therapy,5.8 ± 0.7
same,Hamilton Depression Scale questionnaire (DMS III) score,[3]; 6 months of therapy,5.1 ± 1.3
same,Change in DMS III scores (in words),"[3]; at 3 months, F=4.07, P<0.05",significant decrease
same,Significant decrease in DMS III scores (in words),"[3]; at 6 months, F=2.5, P=n.s.",but not at 6 months
same,DMS III score compared between groups,"[3]; at 6 months, comparison with placebo (and testosterone)",No significant difference
same,Hamilton Depression Scale questionnaire (DMS III) score,[3]; before therapy,6.6 ± 1.0
same,Change in total serum testosterone (in words),[4]; at either 3 or 6 months,no significant increases
same,Total testosterone,[4]; 3 months of therapy,15.5 ± 3.9 nmol/L
same,Total testosterone,[4]; 6 months of therapy,15.8 ± 2.6 nmol/L
same,Total testosterone,[4]; before therapy,14.5 ± 2.1 nmol/L
same,Free blood testosterone,[5]; 3 months of therapy,19.5 ± 4.2 pg/mL
same,Free blood testosterone,[5]; 6 months of therapy,19.7 ± 4.0 pg/mL
same,Free blood testosterone,[5]; before therapy,4.4 ± 0.8 pg/mL
same,Prolactin,[6]; 3 months of therapy,7.4 ± 1.7
same,Prolactin,[6]; 6 months of therapy,7.3 ± 1.8
same,Prolactin,[6]; before therapy,7.7 ± 1.6
same,Benefit in patients in the andropause,[7],fair amount of benefit
same,IIEF-15 Erectile Function section score,[8]; 3 months of therapy,16.7 ± 3.7
same,IIEF-15 General Satisfaction section score (Table 18 title),[8]; 3 months of therapy,3.7 ± 1.1
same,IIEF-15 Intercourse Satisfaction section score,[8]; 3 months of therapy,4.8 ± 0.8
same,IIEF-15 Orgasmic Function section score (Table 17 title),[8]; 3 months of therapy,3.9 ± 0.9
same,IIEF-15 Sexual Desire section score,[8]; 3 months of therapy,5.7 ± 0.8
same,IIEF-15 Erectile Function section score,[8]; 6 months of therapy,20.2 ± 5.3
same,IIEF-15 General Satisfaction section score (Table 18 title),[8]; 6 months of therapy,4.4 ± 2.2
same,IIEF-15 Intercourse Satisfaction section score,[8]; 6 months of therapy,5.8 ± 1.9
same,IIEF-15 Orgasmic Function section score (Table 17 title),[8]; 6 months of therapy,4.7 ± 1.8
same,IIEF-15 Sexual Desire section score,[8]; 6 months of therapy,7.1 ± 0.9
same,Intercourse satisfaction (in words),"[8]; IIEF-15, Table 15",significantly increased
same,Sexual desire (in words),"[8]; IIEF-15, Table 16",significantly increased
same,Change in IIEF-15 Orgasmic Function scores (Table 18),"[8]; at 3 months, F=12.6, P<0.01",significantly increased
same,IIEF-15 Erectile Function section score,[8]; before therapy,13.8 ± 2.7
same,IIEF-15 General Satisfaction section score (Table 18 title),[8]; before therapy,3.2 ± 0.6
same,IIEF-15 Intercourse Satisfaction section score,[8]; before therapy,4.1 ± 0.8
same,IIEF-15 Orgasmic Function section score (Table 17 title),[8]; before therapy,3.2 ± 1.2
same,IIEF-15 Sexual Desire section score,[8]; before therapy,4.3 ± 1.0
same,Change in IIEF-15 Erectile Function scores (in words),[8]; both at 3 months and 6 months,significant increase
same,Erectile activity (in words),[8]; conclusion from Table 14,significantly increase
same,Change in IIEF-15 General Satisfaction scores (text on Table 17),[8]; time not stated,failed to induce any significant changes
same,Duration of full erections,[9]; 3 months of therapy,112.7 ± 21.1 min
same,Duration of full erections,[9]; 6 months of therapy,119.6 ± 26.0 min
same,Change in duration of full nocturnal erections (in words),[9]; at 6 months,significant increase
same,Duration of full erections,[9]; before therapy,108.3 ± 18.7 min
same,Prostate volume,[10]; 3 months of therapy,15.5 ± 3.0 cm^3
same,Prostate volume,[10]; 6 months of therapy,15.5 ± 2.6 cm^3
same,Prostate volume,[10]; before therapy,15.3 ± 2.8 cm^3
same,Fatigue scale score,[11]; 3 months of therapy,1.1 ± 1.0
same,Fatigue scale score,[11]; 6 months of therapy,0.6 ± 0.4
same,Change in fatigue scale score (in words),"[11]; at 3 months, F=33.6, P<0.01",statistically significant increase
same,Change in fatigue scale score (in words),"[11]; at 6 months, F=5.9, P=n.s.",no significant increase
same,Fatigue scale score,[11]; before therapy,2.8 ± 1.3
same,"Activity in increasing the sensation of general well-being, comparison",[11]; conclusion from Table 20,significantly more active than placebo
same,Change in blood levels of LH (in words),"[12]; at 3 months, F=229 P<0.01",statistically significant reduction
same,Change in blood levels of LH (in words),[12]; at 6 months,significant reduction
same,LH,[12]; 3 months of therapy,4.3 ± 0.6 IU/l
same,LH,[12]; 6 months of therapy,4.2 ± 1.2 IU/l
same,LH,[12]; before therapy,8.9 ± 0.6 IU/l
same,PSA,[13]; 3 months of therapy,2.01 ± 0.79 ng/mL
same,PSA,[13]; 6 months of therapy,2.02 ± 0.85 ng/mL
same,PSA,[13]; before therapy,2.02 ± 0.74 ng/mL
same,Change in blood PSA levels (in words),[13]; during and after therapy vs before,did not significantly increase
